Patent US20050226913A1, “Article for inhibiting microbial growth in physiological fluids” (Eastman Kodak Company, priority 2004, published 2005)

Assay: Stability constant (log βn) of ligand with Fe(III)
Settings: Fe(III) (target) minus Ca (interfering), from Table 1
From the text: Herein the stability constant for the reaction of a metal-ion (M) and a sequestrant or ligand (L) is defined as follows: M+nL⇄MLn
where the stability constant is βn=[MLn]/[M][L]^n, wherein [MLn] is the concentration of “complexed” metal-ion, [M] is the concentration of free (uncomplexed) metal-ion and [L] is the concentration of free ligand. The log of the stability constant is log βn, and n is the number of ligands, which coordinate with the metal.

## O=C(O)CN(CCN(CC(=O)O)CC(=O)O)CCN(CC(=O)O)CC(=O)O [DTPA, diethylenetriaminepentaacetic acid]
  selectivity: difference between the log stability constants: 17.2
